Laboratory results: ChEMBL document CHEMBL1140819, “Protected aminooxyprolines for expedited library synthesis: application to Tsg101-directed proline-oxime containing peptides” (Bioorg Med Chem Lett, 2008)
*1 amine or outer side, *2 acyl side, *3 side chain or, on linkers, in order; H or OH if unused. Where a SMILES comes first, the peptide text is derived from it. [ ]: non-standard residue; d: D form. The star is where a group is joined. ξ: configuration not given here. Fluorescein(5-NHCS) = O=C1OC2(c3ccc(O)cc3Oc3cc(O)ccc32)c2cc(NC(=S)*)ccc21; X18 = O=C([C@@H]1C[C@@H](O/N=C\c2ccc3c(c2)Cc2ccccc2-3)CN1[*:1])[*:2]; X34 = O=C([C@@H]1[C@@H](O/N=C\c2ccc([N+](=O)[O-])o2)CCN1[*:1])[*:2]; X23 = O=C([C@@H]1[C@@H](O/N=C\c2ccc(OCc3ccccc3)cc2)CCN1[*:1])[*:2]; X33 = CC(/C=N\O[C@H]1C[C@@H](C(=O)[*:2])N([*:1])C1)=C\c1ccccc1; X27 = N#Cc1ccc(/C=N\O[C@@H]2C[C@@H](C(=O)[*:2])N([*:1])C2)cc1; X36 = CC(/C=N\O[C@H]1CCN([*:1])[C@@H]1C(=O)[*:2])=C\c1ccccc1; X43 = COc1ccc(/C=N\O[C@H]2CCN([*:1])[C@@H]2C(=O)[*:2])cc1OC; X16 = COc1ccc(/C=N\O[C@H]2CCN([*:1])[C@@H]2C(=O)[*:2])cc1O; X14 = CCCCCCCC/C=N\O[C@@H]1C[C@@H](C(=O)[*:2])N([*:1])C1; X26 = O=C([C@@H]1C[C@@H](O/N=C\CCc2ccccc2)CN1[*:1])[*:2]; X42 = O=C([C@@H]1[C@@H](O/N=C\CCc2ccccc2)CCN1[*:1])[*:2]; X24 = O=C([C@@H]1[C@@H](O/N=C\c2ccccc2)CCN1[*:1])[*:2]; X20 = O=C(O)CC/C=N\O[C@H]1CCN([*:1])[C@@H]1C(=O)[*:2]; X4 = O=C([C@@H]1[C@@H](O/N=C\c2ccncc2)CCN1[*:1])[*:2]; X41 = CCCCC/C=N\O[C@@H]1C[C@@H](C(=O)[*:2])N([*:1])C1; X3 = CCCCC/C=N\O[C@H]1CCN([*:1])[C@@H]1C(=O)[*:2]; ξPip = O=C(O)C1CCCCN1; Ava = NCCCCC(=O)O

Molecular target: T1, Tumor susceptibility gene 101 protein (Homo sapiens, UniProt Q99816)
T1 sequence (Q99816 whole entry): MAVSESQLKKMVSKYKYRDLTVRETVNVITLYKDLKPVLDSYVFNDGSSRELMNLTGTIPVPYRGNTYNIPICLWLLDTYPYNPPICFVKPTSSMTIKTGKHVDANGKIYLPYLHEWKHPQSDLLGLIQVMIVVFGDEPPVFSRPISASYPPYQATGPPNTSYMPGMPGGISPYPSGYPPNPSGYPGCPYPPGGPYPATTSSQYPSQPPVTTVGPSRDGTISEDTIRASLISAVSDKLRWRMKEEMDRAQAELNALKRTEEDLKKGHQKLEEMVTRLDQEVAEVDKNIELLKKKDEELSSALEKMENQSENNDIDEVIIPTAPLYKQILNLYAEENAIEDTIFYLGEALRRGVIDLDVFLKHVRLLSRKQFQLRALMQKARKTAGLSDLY
Assay: Binding affinity to Tsg101

CCCCCCCC/C=N\O[C@@H]1C[C@@H](C(=O)N[C@@H](CCC(=O)O)C(=O)N[C@@H](CCC(=O)O)C(N)=O)N(C(=O)C2CCCCN2C(=O)[C@H](C)NC(=O)[C@@H](NC(=O)[C@@H]2CCCN2C(=O)[C@H](CCC(=O)O)NC(=O)[C@@H]2CCCN2C(=O)CCCCNC(=S)Nc2ccc3c(c2)C2(OC3=O)c3ccc(O)cc3Oc3cc(O)ccc32)[C@@H](C)O)C1 (stereo partly specified) ({Fluorescein(5-NHCS)-Ava}-PEPTA[ξPip][X14]EE-NH2)
IC50: 54 µM

C[C@H](NC(=O)[C@@H](NC(=O)[C@@H]1CCCN1C(=O)[C@H](CCC(=O)O)NC(=O)[C@@H]1CCCN1C(=O)CCCCNC(=S)Nc1ccc2c(c1)C1(OC2=O)c2ccc(O)cc2Oc2cc(O)ccc21)[C@@H](C)O)C(=O)N1CCCCC1C(=O)N1CC[C@H](O/N=C\c2ccccc2)[C@H]1C(=O)N[C@@H](CCC(=O)O)C(=O)N[C@@H](CCC(=O)O)C(N)=O (stereo partly specified) ({Fluorescein(5-NHCS)-Ava}-PEPTA[ξPip][X24]EE-NH2)
IC50: 15 µM

COc1ccc(/C=N\O[C@H]2CCN(C(=O)C3CCCCN3C(=O)[C@H](C)NC(=O)[C@@H](NC(=O)[C@@H]3CCCN3C(=O)[C@H](CCC(=O)O)NC(=O)[C@@H]3CCCN3C(=O)CCCCNC(=S)Nc3ccc4c(c3)C3(OC4=O)c4ccc(O)cc4Oc4cc(O)ccc43)[C@@H](C)O)[C@@H]2C(=O)N[C@@H](CCC(=O)O)C(=O)N[C@@H](CCC(=O)O)C(N)=O)cc1OC (stereo partly specified) ({Fluorescein(5-NHCS)-Ava}-PEPTA[ξPip][X43]EE-NH2)
IC50: 22 µM

C[C@H](NC(=O)[C@@H](NC(=O)[C@@H]1CCCN1C(=O)[C@H](CCC(=O)O)NC(=O)[C@@H]1CCCN1C(=O)CCCCNC(=S)Nc1ccc2c(c1)C1(OC2=O)c2ccc(O)cc2Oc2cc(O)ccc21)[C@@H](C)O)C(=O)N1CCCCC1C(=O)N1CC[C@H](O/N=C\c2ccncc2)[C@H]1C(=O)N[C@@H](CCC(=O)O)C(=O)N[C@@H](CCC(=O)O)C(N)=O (stereo partly specified) ({Fluorescein(5-NHCS)-Ava}-PEPTA[ξPip][X4]EE-NH2)
IC50: 22 µM

C[C@H](NC(=O)[C@@H](NC(=O)[C@@H]1CCCN1C(=O)[C@H](CCC(=O)O)NC(=O)[C@@H]1CCCN1C(=O)CCCCNC(=S)Nc1ccc2c(c1)C1(OC2=O)c2ccc(O)cc2Oc2cc(O)ccc21)[C@@H](C)O)C(=O)N1CCCCC1C(=O)N1CC[C@H](O/N=C\c2ccc([N+](=O)[O-])o2)[C@H]1C(=O)N[C@@H](CCC(=O)O)C(=O)N[C@@H](CCC(=O)O)C(N)=O (stereo partly specified) ({Fluorescein(5-NHCS)-Ava}-PEPTA[ξPip][X34]EE-NH2)
IC50: 18 µM

C[C@H](NC(=O)[C@@H](NC(=O)[C@@H]1CCCN1C(=O)[C@H](CCC(=O)O)NC(=O)[C@@H]1CCCN1C(=O)CCCCNC(=S)Nc1ccc2c(c1)C1(OC2=O)c2ccc(O)cc2Oc2cc(O)ccc21)[C@@H](C)O)C(=O)N1CCCCC1C(=O)N1CC[C@H](O/N=C\c2ccc(OCc3ccccc3)cc2)[C@H]1C(=O)N[C@@H](CCC(=O)O)C(=O)N[C@@H](CCC(=O)O)C(N)=O (stereo partly specified) ({Fluorescein(5-NHCS)-Ava}-PEPTA[ξPip][X23]EE-NH2)
IC50: 18 µM

C[C@H](NC(=O)[C@@H](NC(=O)[C@@H]1CCCN1C(=O)[C@H](CCC(=O)O)NC(=O)[C@@H]1CCCN1C(=O)CCCCNC(=S)Nc1ccc2c(c1)C1(OC2=O)c2ccc(O)cc2Oc2cc(O)ccc21)[C@@H](C)O)C(=O)N1CCCCC1C(=O)N1CC[C@H](O/N=C\CCc2ccccc2)[C@H]1C(=O)N[C@@H](CCC(=O)O)C(=O)N[C@@H](CCC(=O)O)C(N)=O (stereo partly specified) ({Fluorescein(5-NHCS)-Ava}-PEPTA[ξPip][X42]EE-NH2)
IC50: 20 µM

CC(/C=N\O[C@H]1C[C@@H](C(=O)N[C@@H](CCC(=O)O)C(=O)N[C@@H](CCC(=O)O)C(N)=O)N(C(=O)C2CCCCN2C(=O)[C@H](C)NC(=O)[C@@H](NC(=O)[C@@H]2CCCN2C(=O)[C@H](CCC(=O)O)NC(=O)[C@@H]2CCCN2C(=O)CCCCNC(=S)Nc2ccc3c(c2)C2(OC3=O)c3ccc(O)cc3Oc3cc(O)ccc32)[C@@H](C)O)C1)=C\c1ccccc1 (stereo partly specified) ({Fluorescein(5-NHCS)-Ava}-PEPTA[ξPip][X33]EE-NH2)
IC50: 58 µM

COc1ccc(/C=N\O[C@H]2CCN(C(=O)C3CCCCN3C(=O)[C@H](C)NC(=O)[C@@H](NC(=O)[C@@H]3CCCN3C(=O)[C@H](CCC(=O)O)NC(=O)[C@@H]3CCCN3C(=O)CCCCNC(=S)Nc3ccc4c(c3)C3(OC4=O)c4ccc(O)cc4Oc4cc(O)ccc43)[C@@H](C)O)[C@@H]2C(=O)N[C@@H](CCC(=O)O)C(=O)N[C@@H](CCC(=O)O)C(N)=O)cc1O (stereo partly specified) ({Fluorescein(5-NHCS)-Ava}-PEPTA[ξPip][X16]EE-NH2)
IC50: 13 µM

C[C@H](NC(=O)[C@@H](NC(=O)[C@@H]1CCCN1C(=O)[C@H](CCC(=O)O)NC(=O)[C@@H]1CCCN1C(=O)CCCCNC(=S)Nc1ccc2c(c1)C1(OC2=O)c2ccc(O)cc2Oc2cc(O)ccc21)[C@@H](C)O)C(=O)N1CCCCC1C(=O)N1C[C@H](O/N=C\c2ccc3c(c2)Cc2ccccc2-3)C[C@H]1C(=O)N[C@@H](CCC(=O)O)C(=O)N[C@@H](CCC(=O)O)C(N)=O (stereo partly specified) ({Fluorescein(5-NHCS)-Ava}-PEPTA[ξPip][X18]EE-NH2)
IC50: 27 µM

CCCCC/C=N\O[C@@H]1C[C@@H](C(=O)N[C@@H](CCC(=O)O)C(=O)N[C@@H](CCC(=O)O)C(N)=O)N(C(=O)C2CCCCN2C(=O)[C@H](C)NC(=O)[C@@H](NC(=O)[C@@H]2CCCN2C(=O)[C@H](CCC(=O)O)NC(=O)[C@@H]2CCCN2C(=O)CCCCNC(=S)Nc2ccc3c(c2)C2(OC3=O)c3ccc(O)cc3Oc3cc(O)ccc32)[C@@H](C)O)C1 (stereo partly specified) ({Fluorescein(5-NHCS)-Ava}-PEPTA[ξPip][X41]EE-NH2)
IC50: 41 µM

C[C@H](NC(=O)[C@@H](NC(=O)[C@@H]1CCCN1C(=O)[C@H](CCC(=O)O)NC(=O)[C@@H]1CCCN1C(=O)CCCCNC(=S)Nc1ccc2c(c1)C1(OC2=O)c2ccc(O)cc2Oc2cc(O)ccc21)[C@@H](C)O)C(=O)N1CCCCC1C(=O)N1CC[C@H](O/N=C\CCC(=O)O)[C@H]1C(=O)N[C@@H](CCC(=O)O)C(=O)N[C@@H](CCC(=O)O)C(N)=O (stereo partly specified) ({Fluorescein(5-NHCS)-Ava}-PEPTA[ξPip][X20]EE-NH2)
IC50: 16 µM

C[C@H](NC(=O)[C@@H](NC(=O)[C@@H]1CCCN1C(=O)[C@H](CCC(=O)O)NC(=O)[C@@H]1CCCN1C(=O)CCCCNC(=S)Nc1ccc2c(c1)C1(OC2=O)c2ccc(O)cc2Oc2cc(O)ccc21)[C@@H](C)O)C(=O)N1CCCCC1C(=O)N1C[C@H](O/N=C\CCc2ccccc2)C[C@H]1C(=O)N[C@@H](CCC(=O)O)C(=O)N[C@@H](CCC(=O)O)C(N)=O (stereo partly specified) ({Fluorescein(5-NHCS)-Ava}-PEPTA[ξPip][X26]EE-NH2)
IC50: 26 µM

C[C@H](NC(=O)[C@@H](NC(=O)[C@@H]1CCCN1C(=O)[C@H](CCC(=O)O)NC(=O)[C@@H]1CCCN1C(=O)CCCCNC(=S)Nc1ccc2c(c1)C1(OC2=O)c2ccc(O)cc2Oc2cc(O)ccc21)[C@@H](C)O)C(=O)N1CCCCC1C(=O)N1C[C@H](O/N=C\c2ccc(C#N)cc2)C[C@H]1C(=O)N[C@@H](CCC(=O)O)C(=O)N[C@@H](CCC(=O)O)C(N)=O (stereo partly specified) ({Fluorescein(5-NHCS)-Ava}-PEPTA[ξPip][X27]EE-NH2)
IC50: 20 µM

CC(/C=N\O[C@H]1CCN(C(=O)C2CCCCN2C(=O)[C@H](C)NC(=O)[C@@H](NC(=O)[C@@H]2CCCN2C(=O)[C@H](CCC(=O)O)NC(=O)[C@@H]2CCCN2C(=O)CCCCNC(=S)Nc2ccc3c(c2)C2(OC3=O)c3ccc(O)cc3Oc3cc(O)ccc32)[C@@H](C)O)[C@@H]1C(=O)N[C@@H](CCC(=O)O)C(=O)N[C@@H](CCC(=O)O)C(N)=O)=C\c1ccccc1 (stereo partly specified) ({Fluorescein(5-NHCS)-Ava}-PEPTA[ξPip][X36]EE-NH2)
IC50: 12 µM

CCCCC/C=N\O[C@H]1CCN(C(=O)C2CCCCN2C(=O)[C@H](C)NC(=O)[C@@H](NC(=O)[C@@H]2CCCN2C(=O)[C@H](CCC(=O)O)NC(=O)[C@@H]2CCCN2C(=O)CCCCNC(=S)Nc2ccc3c(c2)C2(OC3=O)c3ccc(O)cc3Oc3cc(O)ccc32)[C@@H](C)O)[C@@H]1C(=O)N[C@@H](CCC(=O)O)C(=O)N[C@@H](CCC(=O)O)C(N)=O (stereo partly specified) ({Fluorescein(5-NHCS)-Ava}-PEPTA[ξPip][X3]EE-NH2)
IC50: 23 µM
